# Experiments:
# [1] = physiological concentrations observed in patients; cited from earlier work
# [2] = test system: colorectal cancer organoids; assay: Inhibition of colorectal cancer organoid growth by bortezomib (cell killing control); format: cell-based, human; conditions: at 1 μM; three cancer organoids; image analysis and CellTitreGlo 3D (FIG. 17)
# Experimental: The bortezomib concentration of 1 um was selected as positive (killing) control, indicated by the dashed red line.
# Organoids were digested with TrypLE Express enzyme at 37° C. for 15-20 min. Digestion was terminated in 1% BSA in DMEM/F12 and fragments were collected by centrifugation. Pellets were resuspended in culture medium, dissociated with a 26 G needle and filtered through a 40 μm cell strainer (Bio-Strategy, BDAA352340) to produce a single cell suspension. Live cells were counted using a hemocytometer and trypan blue staining. Single cells (3000 cells in 60 μl/well) were suspended in culture medium with 3% Matrigel, penicillin-streptomycin, normocin and 10 μM Y27632 and seeded in 384-well optical plates (Thermo Fisher Scientific, NUN242764) using a MANTIS® liquid handling robot (Formulatrix), and established for 3 days prior to drug addition. […]
# Plate uniformity in the 384-well format was evaluated for maximum (Max) signals, minimum (Min) signals, and drug dose-dependent midpoint (Mid) signals (FIG. 15c-f). […] Organoid viability was determined by both image analysis and CellTiter-Glo 3D luminescence measurements. Mean organoid size and luminescence signals were visualized as heatmaps for each plate and plotted by wells for each plate row from left to right or as drug dose-response curves.
# [3] = test system: cancer organoid WCB123LU; assay: Regorafenib dose-response in 384-well LVM suspension culture, image analysis (mean organoid size); format: cell-based; conditions: Homo sapiens, 168 h, imaging, 7 days drug, 3% Matrigel, read-out: Mean ED50
# Experimental: (§1) Organoids were digested with TrypLE Express enzyme at 37° C. for 15-20 min. Digestion was terminated in 1% BSA in DMEM/F12 and fragments were collected by centrifugation. Pellets were resuspended in culture medium, dissociated with a 26 G needle and filtered through a 40 μm cell strainer (Bio-Strategy, BDAA352340) to produce a single cell suspension. Live cells were counted using a hemocytometer and trypan blue staining. Single cells (3000 cells in 60 μl/well) were suspended in culture medium with 3% Matrigel, penicillin-streptomycin, normocin and 10 μM Y27632 and seeded in 384-well optical plates (Thermo Fisher Scientific, NUN242764) using a MANTIS® liquid handling robot (Formulatrix), and established for 3 days prior to drug addition. For plate uniformity studies, 1 μM bortezomib (Selleck, S1013) was used as the positive control, and 0.5% DMSO (Sigma, D2650) was used as a negative vehicle control. For the drug-dose response curves, regorafenib (Selleck, S1178) was used in a 9 point 4-fold titration series starting at 50 μM. All compound plates were prepared using a JANUS liquid handling robot (PerkinElmer) and stamped into 384-well plates using an integrated PinTool addition accessory (PerkinElmer).
# (§2) PDTOs were imaged every 24 h for 7 days by bright-field microscopy as z-stacks on an automated Eclipse Ti2 Inverted Microscope System with an integrated tissue culture incubator (Nikon). 384-well images were captured using a 4× dry objective and Nikon Eclipse Ti2 software with a 25 μm Z-stack over a range of 500 μm. On day 7, 20μl CellTiter-Glo 3D reagent (Promega, G9683) was added using the MANTIS® liquid handling robot, plates were shaken at 1000 rpm for 30 mins at room temperature and luminescence measured using an EnVision plate reader (PerkinElmer).
# (§3) For image analysis, flattening of Z-stack bright-field images, removal of background debris and selection of organoids were performed using ImageJ software (NIH Image). The projection of z-stack images onto a single in-focus image was carried out using the Extended Depth of Field (EDF) plugin in “easy mode”, with the parameter quality=′1′ and topology=1′. Processed images were exported as high-quality tiff files. Background debris removal was performed by with a series of steps including Subtract Background, Enhance Local Contrast (CLAHE), set AutoThreshold, set Black Background, and Convert to Mask. Organoid selection and feature extraction were achieved using sequential Analyze Particles, Invert LUT, Fill Holes, Watershed, Set Measurements and Analyze Particles steps. Features of selected organoids were exported as text files for determination of mean organoid size.
# (§4) For comparison of uniformity of regorafenib dose response curves between imaging and CellTitreGlo 3D data, response curves were fitted using a 4-parameter log-logistic function to percent viability data.
# (§5) Plate uniformity in the 384-well format was evaluated for maximum (Max) signals, minimum (Min) signals, and drug dose-dependent midpoint (Mid) signals (FIG. 15c-f). To determine Max signals, organoids were established for 3 days, treated with 0.5% DMSO (vehicle control) using a JANUS Automated Liquid Handling Workstation with a 384 pin tool, and incubated for 7 days. […] To evaluate dose-dependent Mid signals, regorafenib was titrated across each half of the assay plate in a 9-step, 4-fold dilution series starting from 50 μM, generating a total of 24 drug dose-response curves. Organoid viability was determined by both image analysis and CellTiter-Glo 3D luminescence measurements. Mean organoid size and luminescence signals were visualized as heatmaps for each plate and plotted by wells for each plate row from left to right or as drug dose-response curves.
# [4] = test system: cancer organoid WCB088T; assay: as above; format: cell-based; conditions: Homo sapiens, 168 h, imaging, 7 days drug, 3% Matrigel, read-out: Mean ED50
# Experimental: as §1, §2, §3, §4, §5
# [5] = test system: cancer organoid WCB024T; assay: as above; format: cell-based; conditions: Homo sapiens, 168 h, imaging, 7 days drug, 3% Matrigel, read-out: Mean ED50
# Experimental: as §1, §2, §3, §4, §5
# [6] = test system: mitochondrial function; conditions: Weng, Z. et al. (2015) Toxicology 327, 10-21; cited from earlier work
# [7] = test system: cancer organoid WCB123LU; assay: Regorafenib dose-response in 384-well LVM suspension culture, CellTitre-Glo 3D viability assay; format: cell-based; conditions: Homo sapiens, 168 h, 7 days drug, 3% Matrigel, read-out: Mean ED50
# Experimental: as §1, §2, §4, §5
# [8] = test system: cancer organoid WCB088T; assay: as above; format: cell-based; conditions: Homo sapiens, 168 h, 7 days drug, 3% Matrigel, read-out: Mean ED50
# Experimental: as §1, §2, §4, §5
# [9] = test system: cancer organoid WCB024T; assay: as above; format: cell-based; conditions: Homo sapiens, 168 h, 7 days drug, 3% Matrigel, read-out: Mean ED50
# Experimental: as §1, §2, §4, §5
molecule,measurement,setting,value
O=C1[O][Pt]2([NH][C@@H]3CCCC[C@H]3[NH]2)[O]C1=O [oxaliplatin],Cmax,[1],~5 µM
CC(C)C[C@H](NC(=O)[C@H](Cc1ccccc1)NC(=O)c1cnccn1)B(O)O [bortezomib],growth inhibition (cell killing control),[2],complete growth inhibition
CCc1c2c(nc3ccc(O)cc13)-c1cc3c(c(=O)n1C2)COC(=O)[C@]3(O)CC [SN-38],Cmax,[1],~0.14 µM
CNC(=O)c1cc(Oc2ccc(NC(=O)Nc3ccc(Cl)c(C(F)(F)F)c3)c(F)c2)ccn1 [regorafenib],EC50,[3]; Mid (Left) plate half,1.23 µM
same,EC50,[3]; Mid (Right) plate half,1.56 µM
same,EC50,[4]; Mid (Left) plate half,6.09 µM
same,EC50,[4]; Mid (Right) plate half,10.2 µM
same,EC50,[5]; Mid (Left) plate half,1.54 µM
same,EC50,[5]; Mid (Right) plate half,2.28 µM
same,effect on mitochondrial function and cellular ATP levels,[6],impair mitochondrial function and decrease cellular ATP levels
same,Cmax,[1],~7.3 µM
same,EC50,[7]; Mid (Left) plate half,1.01 µM
same,EC50,[7]; Mid (Right) plate half,1.1 µM
same,EC50,[8]; Mid (Left) plate half,1.98 µM
same,EC50,[8]; Mid (Right) plate half,3.41 µM
same,EC50,[9]; Mid (Left) plate half,3.69 µM
same,EC50,[9]; Mid (Right) plate half,5.15 µM
TAS-102,Cmax,[1],~18.2 µM
"O=c1[nH]cc(F)c(=O)[nH]1 [5-FU, 5-fluorouracil]",Cmax,[1],~7.5 µM
